Results: US10537611B2, “Methods of treating lung cancer” (Five Prime Therapeutics, Inc., priority 2011, dated 2020)

Assays:
[1] = Histological analysis of 55 tissues in rats; format: in vivo, rat; details: high-dose
Protocol: At the 200 mg/kg/qwk dose the maximal plasma concentration of the drug was 3.6 and 4.2 mg/ml for female and male rats, respectively (FIG. 18A).

NCI-H226 xenograft model = test: NCI-H226 xenograft tumor growth inhibition; format: in vivo, mouse; details: Lung NCI-H226, IP 15 mg/kg 3×/w, non-amplified, P < 0.001
Source text: The impact of FGFR1-ECD.339-Fc on tumor growth was compared between FGFR1 gene amplified and non-amplified lung cancer xenograft models. Lung cell lines without FGFR1-amplification examined in this experiment were as follows: A549, NCI-H460, NCI-H226, NCI-H2126, NCI-H441, NCI-H358, NCI-H522 and Colo699. Non-amplified cell lines were purchased from ATTC (Manassas, Va.) and cultured according to supplier instructions. Lung cancer xenograft models using non-FGFR1 gene amplified cell lines were carried out substantially as described in Example 2.
(§1) Percentage tumor growth inhibition by FGFR1-ECD.339-Fc was determined by area-under-the-curve (AUC) analysis of xenograft growth curves treated with FGFR1-ECD.339-Fc compared to albumin control. […] The difference in FGFR1-ECD.339-Fc-mediated xenograft inhibition between FGFR1 gene amplified and non-amplified lung cancer xenograft models was statistically significant (P=0.0333).

[2] = test system: Caki-1 renal cell carcinoma xenograft, CD31; test: Tumor angiogenesis (CD31 immunostaining) in Caki-1 xenograft; format: in vivo, mouse; details: Caki-1 tumors; 5 mg/kg intravenously twice a week; Day 57
Protocol: Human renal carcinoma Caki-1 cells (1.5×10^7 cells/mouse) cells were implanted subcutaneously into the right flank of CB17-SCID mice. One day after tumor implantation, the mice were randomized and treated intravenously with either vehicle or FGFR1-ECD.339-Fc (5 mg/kg) twice a week. At the end of the study (Day 57), tumors were excised (N=3/gp) and used for histological analysis. Frozen sections were probed with anti-mouse CD31 monoclonal antibody (BD Biosciences, Franklin Lakes, N.J.) and visualized using HRP-conjugated secondary antibody coupled with diaminobenzidine staining (brown color). Slides were counter-stained with hematoxylin to identify cell nuclei (blue color). Representative sections are shown (5× magnification).

JIMT1 xenograft model = test: JIMT1 xenograft tumor growth inhibition; format: in vivo, mouse; details: Breast JIMT1; IP 1 mg/kg BIW; non-amplified; P < 0.05
Protocol: as §1
(§2) Also shown in Table 5 are the dosing schedule for FGFR1-ECD.339-Fc in a mouse xenograft model, the percent tumor growth inhibition (TGI (%)) and the statistical significance of the tumor growth inhibition (P Value), as well as whether the FGFR1 gene is amplified in the cell line.
(§3) An exemplary xenograft experiment is as follows. For Caki-1 and MSTO-211H, five million cells were implanted subcutaneously over the right flank of SCID mice (N=10 per group). […] Representative tumor growth curves are shown for a renal cancer, Caki-1, (A), and mesothelioma, MSTO-211H, (B) xenograft cancer model. […] In the MSTO-211H mesothelioma model, FGFR1-ECD.339-Fc administration reduced tumor growth (FIG. 16b) by 64% (P<0.0001).

Du145 xenograft model = test: Du145 xenograft tumor growth inhibition; format: in vivo, mouse; details: Prostate Du145; IP 0.15 mg/kg 3×/w; non-amplified; P ns
Protocol: as §1, §2, §3

MFE-280 xenograft model = test: MFE-280 xenograft tumor growth inhibition; format: in vivo, mouse; details: Endometrial MFE-280; IP 15 mg/kg BIW; non-amplified; P < 0.001
Protocol: as §1, §2, §3

[3] = test system: MSTO-211H xenograft model; test: MSTO-211H mesothelioma xenograft tumor growth inhibition; format: in vivo, mouse; details: Mesothelioma MSTO-211H, IP 15 mg/kg BIW, non-amplified, P < 0.0001
Source text: as §3

FGFR1-ECD.339-Fc: human FGFR1 extracellular domain ending at amino acid 339 fused to an Fc; SEQ ID NO: 6 (mature form), SEQ ID NO: 5 with signal peptide
histological changes (hyperphosphatemia-related calcium-phosphorus deposition) [1]: failed to reveal any changes | TGI (%) (NCI-H226 xenograft model): 55% | CD31 staining (tumor angiogenesis) [2]: reduced CD31 staining | TGI (%) (JIMT1 xenograft model): 28% | TGI (%) (Du145 xenograft model): 31% | TGI (%) (MFE-280 xenograft model): 96% | TGI (%) [3]: 64%
